Measured values published in patent US7815900B1, “Use of C3-C5 monosaccharides to protect keratinous fibers” (L'Oréal S.A., priority 2000, dated 2010).

Columns and labels:
[1] = Wet tensile strength (Dia-Stron) after heat cycles; conditions: for Dia-Stron, wet fibers Extension: 1.0% solution, n = 100; for Work 25% (Wet): 0.06 M solutions; for Work 25% (Wet) / Extension-Break / Work 25% / Work-Break / Young's Modulus: n = 100 fibers; for Extension-Break / Work 25% / Work-Break / Young's Modulus: 0.06 M, DIA-STRON
Protocol: Normal blonde hair was bleached with Clairol Basic White Bleach (40 volume H2O2) for 20 min at standard room temperature and humidity. The bleached swatches were rinsed with tap water, and soaked in an excess of deionized water for 2 hours. The swatches were air-dried and equilibrated for 48 hours prior to further treatment. Some of the bleached swatches were subsequently “permed” using a Reforming Lotion (10% TGA, pH 8.8, 20 minutes) and then neutralized with 2% H2O2, pH 3 (5 minutes). The bleached/permed swatches were rinsed with tap water, and soaked in an excess of deionized water for 2 hours. The swatches were air-dried and equilibrated for 48 hours prior to further treatment. The swatches that were heat treated were treated with 0.06M solutions of hexoses and pentoses for 10 min at 45° C. and then were heated for 12 cycles. The swatches were rinsed after the heat application. Tensile strength was determined using both the Instron (50 dry fibers per tests) and the Dia-Stron (100 wet fibers per test), with the stretching rate of 100 mm/min. The following parameters were determined: Young's Modulus (N/m^2), Work to stretch 25% (J/m^2); Extension to Break (degree of elongation) (%); Work to Break (J/m^2). Both the bleached and the bleached/permed hair were subjected to heat treatment, as in Example 2. The heat treatment experiment involved 12 heat cycles including application of sugar or control solution before each heat application, and rinsing after the heat application. Deionized water was used as a control treatment. After the heat experiment, the hair was rinsed in water, air-dried, and equilibrated for 24 h in the humidity chamber at 25° C. and 50% RH prior to further testing. The effect of the hexoses vs. pentoses on the dry tensile strength (INSTRON) and the alpha-structure (doublet peak area, DSC) was tested on the bleached hair (Table 13). The effect of a hexose (D-glucose) vs. a pentose (D-Xylose) on wet tensile strength (DIA-STRON) was tested both on the bleached and the bleached/permed hair (Table 14). Application of 0.06M solutions of pentoses protected the bleached and the bleached/permed hair against thermal damage (α-structure; wet and dry tensile strength).

[2] = Tensile strength (work to break) of relaxed hair after treatment; conditions: relaxed ethnic hair, 10 min at 45° C.
Protocol: Kinky hair was relaxed using 2.5% sodium hydroxide (20 min at room temperature). The hair was thoroughly rinsed with water, and a treatment solution was applied for 10 min at 45° C. Each of the following treatment solutions were tested: a) 1% D-xylose, b) 5% D-xylose, and c) deionized water-control treatment.

[3] = Dry tensile strength (Instron) after heat cycles; conditions: normal blonde hair, 0.06 M solutions, n = 50 fibers; for Work 25%: dry, 5 cycles at 45° C.; for Work 25% (Dry): 5 heat cycles at 130° C.
Protocol: Tensile strength was determined using both the Instron (50 dry fibers per tests) and the Dia-Stron (100 wet fibers per test), with the stretching rate of 100 mm/min. The following parameters were determined: Young's Modulus (N/m^2), Work to stretch 25% (J/m^2); Extension to Break (degree of elongation) (%); Work to Break (J/m^2).
(§1) Normal blonde hair was bleached with Clairol Basic White Bleach, 40 volume H2O2, for 20 min at room temperature. One batch of normal and bleached hair swatches underwent five heat cycles at 130° C., where one treatment cycle involved the following steps (1-4):
(§2) 1. The swatches were treated with 0.06 M solutions of monosaccharides in deionized water (about 1 wt %) for 10 min at 45° C.
(§3) 2. The treated swatches were blow-dried for 1 min.
(§4) 3. The heat was applied for 1 min in the form of a flat hair iron Windmere “Solid Gold” (130° C.).
(§5) 4. The swatches were rinsed and blot-dried with a paper-towel.
(§6) The treatment solutions included four pentoses (D-xylose, D-arabinose, D-lyxose, and D-ribose, 1% each) and one hexose (1.2% D-glucose). Deionized water was used as a control treatment. After the heat experiment, the hair was rinsed in water, air-dried, and equilibrated for 24 hours in the humidity chamber at 25° C. and 50% RH prior to further testing. These swatches are referred to as treated at 130° C.
(§7) A second batch of normal and bleached hair swatches were treated in a similar way and blow-dried, without application of the hot iron. The treatment was also repeated 5 times, the swatches from the second batch are referred to as treated at 45° C.

[4] = DSC doublet peak area (α-structure) of hair after heat cycles; conditions: for Doublet Peak Area, normalized: 5 cycles
Protocol: Normal blonde hair was bleached with Clairol Basic White Bleach (40 volume H2O2) for 20 min at standard room temperature and humidity. The bleached swatches were rinsed with tap water, and soaked in an excess of deionized water for 2 hours. The swatches were air-dried and equilibrated for 48 hours prior to further treatment. Some of the bleached swatches were subsequently “permed” using a Reforming Lotion (10% TGA, pH 8.8, 20 minutes) and then neutralized with 2% H2O2, pH 3 (5 minutes). The bleached/permed swatches were rinsed with tap water, and soaked in an excess of deionized water for 2 hours. The swatches were air-dried and equilibrated for 48 hours prior to further treatment. The swatches that were heat treated were treated with 0.06M solutions of hexoses and pentoses for 10 min at 45° C. and then were heated for 12 cycles. The swatches were rinsed after the heat application.
In the DSC tests, finely cut hair (4-5 mg) was crimped in an aluminum pan that was punctured prior to each run. The samples were heated from 25° C. to 300° C., at a scanning rate of 20° C./min, with 5 runs per treatment. The results were averaged.
as §1, §2, §3, §4, §5, §6, §7
Normal blonde hair was subjected to 12 heat cycles, as described in Example 2, using the following treatment solutions: 0.1% D-Xylose (pentose), 0.1% D-Erythrose (tetrose), and 0.1% D-Glyceraldehyde (triose). Each of the C3 to C5 monosaccharides was effective in protecting or reducing the damage to the α-structure of the hair, as compared to water treatment (Table 15).
Normal blonde hair was subjected to 12 heat cycles, as described in Example 2, using 0.1 wt % of the pentose amine derivative, D-Lyxosylimine in deionized water.

[5] = bleached hair after 12 heat cycles
[6] = bleached/permed hair after 12 heat cycles
[7] = wet bleached hair (blonde hair in the source) after 12 heat cycles
[8] = wet bleached/permed hair after 12 heat cycles
[9] = normal blonde hair, 5 cycles at 45° C., 0.06 M solutions
[10] = normal blonde hair, 45° C. (blow drying)
[11] = normal blonde hair, 130° C. (blow-drying + hot iron)
[12] = normal blonde hair, 5 heat cycles at 130° C., 0.06 M solutions

Structure (SMILES)	Work 25% (Wet) [1, 5]	Work 25% (Wet) [1, 6]	Extension-Break [1, 7]	Work 25% [1, 7]	Work-Break [1, 7]	Young's Modulus [1, 7]	Extension-Break [1, 8]	Work 25% [1, 8]	Work-Break [1, 8]	Young's Modulus [1, 8]	Work 25% [3]	Work 25% (Dry) [3]	Doublet Peak Area [4, 9]	Doublet Peak Area, normalized [4, 10]	Doublet Peak Area, normalized [4, 11]	Doublet Peak Area [4, 12]	also measured
O=C[C@H](O)[C@@H](O)[C@H](O)CO [D-Xylose]	432.0 +/− 137.0 J/m^2	199.0 +/− 74.2 J/m^2	52.80 +/− 9.29%	432.0 +/− 137.0 J/m^2	1,600 +/− 526 J/m^2	434.0 +/− 99.1 MN/m^2	54.30 +/− 4.70%	199.0 +/− 74.2 J/m^2	620.0 +/− 231.0 J/m^2	170.0 +/− 88.6 MN/m^2	1,155 +/− 224 J/m^2	1,150 +/− 818 J/m^2	20.17 +/− 11.98 J/g hair	20.17 +/− 11.98 J/g hair	15.27 +/− 5.14 J/g hair	15.27 +/− 5.14 J/g hair	extension to break compared to non-treated or water-treated hair, in words ([1]; bleached and bleached/permed hair, 1% solution prior to heat application): significantly shorter; Dia-Stron, wet fibers Extension ([1]; bleached hair after 12 cycles at 130° C.): 52.80 +/− 9.29%; Dia-Stron, wet fibers Extension ([1]; bleached/permed hair after 12 cycles at 130° C.): 54.30 +/− 4.70%; protection against heat (wet tensile properties) compared to water and 1.2% D-glucose, in words ([1]; wet bleached and bleached/permed hair, 12 heat cycles, 1% solution): statistically significant protection against heat; Work to Break ([2]; 1% solution): 749 +/− 151 J/m^2; Work to Break ([2]; 5% solution): 1,200 +/− 222 J/m^2; Normalized area ([4]; normal blonde hair after 12 heat cycles, 1% in water): 16.05 +/− 5.05 J/g hair; Doublet Peak Area ([4]; normal blonde hair, 0.1 wt % solutions, 12 heat cycles at 130° C.): 12.74 +/− 2.32 J/g hair; protection of the hair structure as compared to water (DSC), in words ([4]; normal blonde hair, 12 heat cycles, 1% in water): appeared to protect the hair structure
O=C[C@H](O)[C@@H](O)[C@H](O)[C@H](O)CO [D-Glucose, reference compound]	187.0 +/− 74.8 J/m^2	155.0 +/− 47.5 J/m^2	64.20 +/− 10.4%	187.0 +/− 74.8 J/m^2	1,130 +/− 453 J/m^2	397.0 +/− 106.0 MN/m^2	63.50 +/− 7.65%	155.0 +/− 47.5 J/m^2	979.0 +/− 300 J/m^2	136.0 +/− 92.5 MN/m^2	837.0 +/− 255.9 J/m^2	836.9 +/− 119.6 J/m^2	11.65 +/− 4.98 J/g hair	11.65 +/− 4.98 J/g hair	7.60 +/− 1.01 J/g hair	7.60 +/− 1.01 J/g hair	protection against heat treatment based on tensile properties and DSC, in words ([1]; Example 2, 12 heat cycles): little or no protection
